This passage reports IC50 results from patent US20110034454A1, “MORPHOLINO PYRIMIDINE DERIVATIVES AND THEIR USE IN THERAPY” (priority 2006, published 2011).

Assay [1] has as its system phosphorylation of Serine 473 in Akt, MDA-MB-468 cells. Description: In vitro phospho-Ser473 Akt assay. In kind it is cell-based. Particulars: Homo sapiens, MDA-MB-468, Test (c), mean of five occasions, read-out: IC50 versus Serine 473 in Akt, mean value. The procedure:
(c) In Vitro Phospho-Ser473 Akt Assay
This assay determines the ability of test compounds to inhibit phosphorylation of Serine 473 in Akt as assessed using Acumen Explorer technology (Acumen Bioscience Limited), a plate reader that can be used to rapidly quantitate features of images generated by laser-scanning.
A MDA-MB-468 human breast adenocarcinoma cell line (LGC Promochem, Teddington, Middlesex, UK, Catalogue No. HTB-132) was routinely maintained at 37° C. with 5% CO2 up to a confluency of 70-90% in DMEM containing 10% heat-inactivated FCS and 1% L-glutamine.
For the assay, the cells were detached from the culture flask using ‘Accutase’ (Innovative Cell Technologies Inc., San Diego, Calif., USA; Catalogue No. AT104) using standard tissue culture methods and resuspended in media to give 1.7×10^5 cells per mL. Aliquots (90 μl) were seeded into each of the inner 60 wells of a black Packard 96 well plate (PerkinElmer, Boston, Mass., USA; Catalogue No. 6005182) to give a density of ˜15000 cells per well. […]
No. 10010015). […] An aliquot of PBS (50 μl) was added to each well and the plates were sealed with black plate sealers and the fluorescence signal was detected and analysed.
Fluorescence dose response data obtained with each compound were analysed and the degree of inhibition of Serine 473 in Akt was expressed as an IC50 value.

The next assay has as its target T1, recombinant mTOR (Homo sapiens, UniProt P42345).
T1 construct: FLAG; made in house
Description: In vitro mTOR kinase assay (AlphaScreen). The class given is biochemical. The conditions noted are these: Test (a). The procedure: (a) In Vitro mTOR Kinase Assay
The assay used AlphaScreen technology (Gray et al., Analytical Biochemistry, 2003, 313: 234-245) to determine the ability of test compounds to inhibit phosphorylation by recombinant mTOR.
The HEK293 FLAG-tagged mTOR (1362-2549) stable cell line was routinely maintained at 37° C. with 5% CO2 up to a confluency of 70-90% in Dulbecco's modified Eagle's growth medium (DMEM; Invitrogen Limited, Paisley, UK Catalogue No. 41966-029) containing 10% heat-inactivated foetal calf serum (FCS; Sigma, Poole, Dorset, UK, Catalogue No. F0392), 1% L-glutamine (Gibco, Catalogue No. 25030-024) and 2 mg/ml Geneticin
(G418 sulfate; Invitrogen Limited, UK Catalogue No. 10131-027). […]
Each reaction was stopped by the addition of 10 μl of a mixture of EDTA (50 mM), bovine serum albumin (BSA; 0.5 mg/mL) and Tris-HCl pH7.4 buffer (50 mM) containing p70 S6 Kinase (T389) 1A5 Monoclonal Antibody (Cell Signalling Technology, Catalogue No. 9206B) and AlphaScreen Streptavidin donor and Protein A acceptor beads (200 ng; Perkin Elmer, Catalogue No. 6760002B and 6760137R respectively) were added and the assay plates were left for about 20 hours at room temperature in the dark. The resultant signals arising from laser light excitation at 680 nm were read using a Packard Envision instrument. […]
mTOR enzyme inhibition for a given test compound was expressed as an IC50 value.

The target of another assay is T2, p110α Type Ia human PI3K (Homo sapiens, UniProt P42336).
T2 construct: full length DNA of each of the p110α, p110β and p110δ Type Ia human PI3K p110 isoforms; 6-His; made in house
T2 sequence (P42336 whole entry, canonical isoform): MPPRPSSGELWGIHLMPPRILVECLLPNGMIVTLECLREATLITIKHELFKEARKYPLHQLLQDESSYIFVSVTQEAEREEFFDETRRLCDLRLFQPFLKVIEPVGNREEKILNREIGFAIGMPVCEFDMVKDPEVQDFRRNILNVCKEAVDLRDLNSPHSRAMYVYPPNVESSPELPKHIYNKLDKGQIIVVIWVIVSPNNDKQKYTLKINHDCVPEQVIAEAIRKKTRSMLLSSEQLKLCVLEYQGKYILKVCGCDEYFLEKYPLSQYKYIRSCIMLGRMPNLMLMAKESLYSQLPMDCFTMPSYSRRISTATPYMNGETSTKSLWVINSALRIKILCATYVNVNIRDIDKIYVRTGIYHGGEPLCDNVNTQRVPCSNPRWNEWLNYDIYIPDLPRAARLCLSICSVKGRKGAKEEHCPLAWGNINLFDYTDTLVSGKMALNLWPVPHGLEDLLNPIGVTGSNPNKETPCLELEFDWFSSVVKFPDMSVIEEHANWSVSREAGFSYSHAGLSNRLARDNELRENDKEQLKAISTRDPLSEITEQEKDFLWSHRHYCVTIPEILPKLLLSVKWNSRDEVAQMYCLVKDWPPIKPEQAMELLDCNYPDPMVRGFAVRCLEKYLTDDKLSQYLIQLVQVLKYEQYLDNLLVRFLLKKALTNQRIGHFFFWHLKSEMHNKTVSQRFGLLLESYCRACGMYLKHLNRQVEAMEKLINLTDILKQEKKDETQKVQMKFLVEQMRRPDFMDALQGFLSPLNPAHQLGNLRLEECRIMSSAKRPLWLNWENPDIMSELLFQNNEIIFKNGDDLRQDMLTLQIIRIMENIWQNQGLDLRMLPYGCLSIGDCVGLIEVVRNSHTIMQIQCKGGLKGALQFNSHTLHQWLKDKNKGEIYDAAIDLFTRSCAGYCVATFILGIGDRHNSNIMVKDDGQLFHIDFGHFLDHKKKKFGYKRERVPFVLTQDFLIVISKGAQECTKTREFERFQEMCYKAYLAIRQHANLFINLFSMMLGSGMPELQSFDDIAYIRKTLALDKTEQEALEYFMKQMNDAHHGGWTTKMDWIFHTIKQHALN
T2 sequence (P27986 whole entry partner, canonical isoform): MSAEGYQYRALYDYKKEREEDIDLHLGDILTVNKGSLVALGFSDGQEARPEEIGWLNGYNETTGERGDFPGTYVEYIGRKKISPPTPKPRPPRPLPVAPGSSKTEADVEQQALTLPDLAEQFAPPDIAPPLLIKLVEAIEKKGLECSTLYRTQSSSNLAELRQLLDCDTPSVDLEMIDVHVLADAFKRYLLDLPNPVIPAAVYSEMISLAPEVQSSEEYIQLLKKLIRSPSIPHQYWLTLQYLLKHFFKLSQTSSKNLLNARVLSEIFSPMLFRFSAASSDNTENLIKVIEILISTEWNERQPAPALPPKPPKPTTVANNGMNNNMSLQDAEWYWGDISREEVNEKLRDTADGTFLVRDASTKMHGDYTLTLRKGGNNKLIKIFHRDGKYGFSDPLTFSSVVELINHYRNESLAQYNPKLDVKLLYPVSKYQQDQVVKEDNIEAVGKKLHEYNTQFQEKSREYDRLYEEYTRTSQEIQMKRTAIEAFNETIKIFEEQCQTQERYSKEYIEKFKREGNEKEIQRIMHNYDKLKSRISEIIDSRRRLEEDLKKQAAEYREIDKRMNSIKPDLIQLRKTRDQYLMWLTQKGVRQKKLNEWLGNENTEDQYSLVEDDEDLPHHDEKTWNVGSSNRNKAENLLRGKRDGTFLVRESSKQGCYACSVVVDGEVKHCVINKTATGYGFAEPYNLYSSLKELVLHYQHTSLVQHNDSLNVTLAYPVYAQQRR
Description: In vitro PI3K enzyme assay (AlphaScreen), p110α. The class given is biochemical. Particulars: Test (b). An excerpt: (b) In Vitro PI3K Enzyme Assay
The assay used AlphaScreen technology (Gray et al., Analytical Biochemistry, 2003, 313: 234-245) to determine the ability of test compounds to inhibit phosphorylation by recombinant Type I PI3K enzymes of the lipid PI(4,5)P2.
DNA fragments encoding human PI3K catalytic and regulatory subunits were isolated from cDNA libraries using standard molecular biology and PCR cloning techniques. The selected DNA fragments were used to generate baculovirus expression vectors. In particular, full length DNA of each of the p110α, p110β and p110δ Type Ia human PI3K p110 isoforms (EMBL Accession Nos. HSU79143, S67334, Y10055 for p110 α, p110β and p110δ respectively) were sub-cloned into a pDEST10 vector (Invitrogen Limited, Fountain Drive, Paisley, UK). The vector is a Gateway-adapted version of Fastbac1 containing a 6-His epitope tag. A truncated form of Type Ib human PI3K p110γ isoform corresponding to amino acid residues 144-1102 (EMBL Accession No. X8336A) and the full length human p85α regulatory subunit (EMBL Accession No. HSP13KIN) were also sub-cloned into pFastBac1 vector containing a 6-His epitope tag. The Type Ia p110 constructs were co-expressed with the p85α regulatory subunit. […]
20 hours at room temperature in the dark. The resultant signals arising from laser light excitation at 680 nm were read using a Packard AlphaQuest instrument. […]

As a reminder, the IC50 is the midpoint of a concentration-inhibition curve.

Several values for one entry are separate records, joined by “and”; a condition that tells them apart may be missing. Equal values may be shown once. Read-outs that look alike come from different tables or passages of the source.

T1 sequence (P42345 1362-2549): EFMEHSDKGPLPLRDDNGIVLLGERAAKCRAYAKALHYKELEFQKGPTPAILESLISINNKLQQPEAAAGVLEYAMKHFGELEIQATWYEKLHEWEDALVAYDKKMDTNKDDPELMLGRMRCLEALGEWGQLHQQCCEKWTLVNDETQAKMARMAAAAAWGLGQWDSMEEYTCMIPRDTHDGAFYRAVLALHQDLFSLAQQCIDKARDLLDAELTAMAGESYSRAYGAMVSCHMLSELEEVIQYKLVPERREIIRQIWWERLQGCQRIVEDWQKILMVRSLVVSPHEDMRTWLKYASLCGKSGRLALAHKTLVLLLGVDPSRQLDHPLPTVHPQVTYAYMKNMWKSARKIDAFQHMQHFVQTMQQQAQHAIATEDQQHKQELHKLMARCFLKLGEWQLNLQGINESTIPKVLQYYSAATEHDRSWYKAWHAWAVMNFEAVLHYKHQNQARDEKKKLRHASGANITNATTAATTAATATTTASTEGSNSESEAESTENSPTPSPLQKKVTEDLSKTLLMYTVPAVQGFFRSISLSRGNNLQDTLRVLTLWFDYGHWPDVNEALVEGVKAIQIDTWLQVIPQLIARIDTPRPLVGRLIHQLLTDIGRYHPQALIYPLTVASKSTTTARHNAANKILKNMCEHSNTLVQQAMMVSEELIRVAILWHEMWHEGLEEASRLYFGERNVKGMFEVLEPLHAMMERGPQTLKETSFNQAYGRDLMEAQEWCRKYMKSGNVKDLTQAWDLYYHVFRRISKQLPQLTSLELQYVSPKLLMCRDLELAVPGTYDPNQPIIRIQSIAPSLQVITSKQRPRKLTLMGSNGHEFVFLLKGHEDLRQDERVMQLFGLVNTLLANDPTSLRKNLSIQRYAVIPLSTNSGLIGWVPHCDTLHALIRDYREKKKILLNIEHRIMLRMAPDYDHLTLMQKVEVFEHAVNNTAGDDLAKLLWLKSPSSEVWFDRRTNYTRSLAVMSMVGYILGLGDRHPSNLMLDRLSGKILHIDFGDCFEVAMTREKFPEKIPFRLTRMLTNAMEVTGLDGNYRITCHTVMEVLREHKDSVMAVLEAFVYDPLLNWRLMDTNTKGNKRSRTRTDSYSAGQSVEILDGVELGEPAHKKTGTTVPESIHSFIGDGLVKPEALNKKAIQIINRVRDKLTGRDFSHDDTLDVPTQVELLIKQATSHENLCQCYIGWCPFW

For the molecule `O=S(=O)(Cc1cc(N2CCOCC2)nc(-c2ccccn2)n1)c1ccccc1` [Example 44, 4-(benzenesulfonylmethyl)-6-morpholin-4-yl-2-pyridin-2-yl-pyrimidine], the IC50 in assay [1] turned out to be 8.84 µM.
As for `O=S(=O)(CCc1cccc(C(F)(F)F)c1)Cc1cc(N2CCOCC2)nc(-c2ccccn2)n1` [Example 65, 4-morpholin-4-yl-2-pyridin-2-yl-6-[2-[3-(trifluoromethyl)phenyl]ethylsulfonylmethyl] pyrimidine], the IC50 on recombinant mTOR (mean of three occasions, read-out: IC50 versus mTOR kinase, mean value) was 5.4 µM; at recombinant mTOR (single occasions, read-out: IC50 versus mTOR kinase) it was 3.9 µM and 4.1 µM and 8.2 µM; on p110α Type Ia human PI3K (mean of three occasions, read-out: IC50 versus p110α Type Ia human PI3K, mean value) it was 6.8 µM; at p110α Type Ia human PI3K (single occasions, read-out: IC50 versus p110α Type Ia human PI3K), 1.9 µM and 13 µM and 5.7 µM.
